Source: patent US6632794B1, “Insulin-like growth factor agonist molecules” (Genentech, Inc., priority 1997, dated 2003)
Values joined by “and” are separate entries in the source; they are usually repeats but may differ in a detail not shown here. Identical values can stand only once. Positions of bridges follow the written chain, without caps; N, C: chain ends. Residues, ends and D or L forms follow the SMILES beside them.

Legend:
IGFBP-3 [1] = biological target: T1, IGFBP-3 (Homo sapiens, UniProt P17936); assay: KIRA assay of IGF-I activity with IGF-I plus IGFBP-3 and peptide; format: cell-based; conditions: FIG. 37D
T1 sequence (P17936 28-291): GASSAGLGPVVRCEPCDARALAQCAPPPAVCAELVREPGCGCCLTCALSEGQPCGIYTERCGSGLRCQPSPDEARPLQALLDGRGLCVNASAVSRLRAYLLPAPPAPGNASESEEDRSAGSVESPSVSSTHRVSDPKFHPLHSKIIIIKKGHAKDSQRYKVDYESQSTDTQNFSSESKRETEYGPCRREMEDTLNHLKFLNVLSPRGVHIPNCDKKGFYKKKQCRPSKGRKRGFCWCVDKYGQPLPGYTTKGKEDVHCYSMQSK
Description: (§1) C. In Vitro Activation (KIRA)
(§2) The ability of several synthetic peptides to block IGF-I binding to IGFBPs and release functional IGF-I was tested in a KIRA assay of IGF-I activity, as described in Example 1. Cells were treated with IGF-I alone, peptide alone, peptide plus IGF-I, IGF-I plus binding protein (IGFBP-1 or IGFBP-3), or IGF-I plus binding protein (IGFBP-1 or IGFBP-3) and peptide.
It is believed that this would drop to 30 uM with a 1:1 ratio.

IGFBP-1 [2] = biological target: T2, IGFBP-1 (Homo sapiens, UniProt P08833); assay: BIAcore competition assay, IGFBP-1 binding to IGF-I; conditions: bp1-01 Ala-scan variants by BIAcore; wt = bp1-01
T2 construct: biotin (chemical label, EZ-LINK NHS-SS-Biotin)
T2 sequence (P08833 26-259): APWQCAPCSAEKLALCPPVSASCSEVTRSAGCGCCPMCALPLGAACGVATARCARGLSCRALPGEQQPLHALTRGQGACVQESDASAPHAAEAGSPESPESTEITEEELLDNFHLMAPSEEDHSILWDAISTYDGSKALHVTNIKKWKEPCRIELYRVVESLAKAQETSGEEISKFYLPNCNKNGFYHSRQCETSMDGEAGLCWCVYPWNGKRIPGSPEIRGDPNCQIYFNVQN
Description: (§3) Two series of synthetic peptide variants were generated to determine which side chains of the bp1-01 peptide might contribute directly to binding IGFBP-1. In the first series an alanine-scanning approach (Cunningham and Wells, Science, 244: 1081-1085 (1989)) was used to remove that portion of each side chain beyond the beta carbon. The contribution of these atoms to the free energy of binding of the peptide to IGFBP-1 was then assessed by measuring the potency (IC50) of the variant for inhibiting IGFBP-1 binding to IGF-I or IGF-II in a BIAcore™competition assay, analogous to that described for IGFBP-3 (see Example 7).
(§4) Substitutions at the N-terminus or C-terminus yielded affinity improvements. […] All of these peptides had similar or improved apparent affinity for IGFBP-1 as compared with bp1-01 and bp1-02 and are thus expected to increase the availability of IGF-I in an in vitro cell culture assay.

IGFBP-1 [3] = biological target: T2, IGFBP-1; assay: BIAcore competition assay, IGFBP-1 binding to IGF-II; conditions: bp1-01 Ala-scan variants by BIAcore
Description: as §3

IGFBP-1 [4] = biological target: T2, IGFBP-1; assay: KIRA assay of IGF-I activity with IGF-I plus IGFBP-1 and peptide; format: cell-based; conditions: peptide plus IGF-I plus IGFBP-1; read-out: IC50 for blocking the inhibition of IGF-I activity by IGFBP-1 (KIRA)
Description: as §1, §2

IGFBP-3 [5] = biological target: T1, IGFBP-3; assay: Biotin-BP plate assay, biotinylated IGFBP-3 binding to IGF-I (control); conditions: FIG. 34
Description: (§5) For inhibition of IGFBP-1 binding, IGFBP-1 (as well as IGFBP-3 as a control) were biotinylated as described above. MAXISORP™plates were coated and blocked as described above, using 2 μg/mL IGF-I. In a separate plate, serial dilutions of peptide were premixed with a constant concentration (20 nM) of biotinylated IGFBP-1. After 20 min. at room temperature, the mixture was added to the IGF-I plate. The peptide/IGFBP mix was then removed and the plate was washed ten times with PBS buffer containing 0.05% TWEEN-20™ surfactant. Bound biotin-IGFBP-1 was then detected using streptavidin-conjugated horse radish peroxidase, and a chromogenic substrate.

IGFBP-1 [6] = biological target: T2, IGFBP-1; assay: Biotin-BP plate (ELISA) assay, biotinylated IGFBP-1 binding to IGF-I
Description: 1. Biotin-BP Assay (for IGFBP-1 Binders)
as §5
A second series of peptides made use of non-natural amino acids to probe whether other structural features such as an added methyl group at the alpha carbon, or an isomer (D-alanine) could affect peptide binding to IGFBP-1.
as §4

IGFBP-1 [7] = biological target: T2, IGFBP-1; assay: BIAcore kinetics on immobilized IGFBP-1; format: binding; conditions: IGFBP-1 coupled to dextran chip
From the text: The kinetics of bp1-01 peptide variants were examined in a BIAcore™ (BIAcore, Inc., Piscataway, N.J.) assay using IGFBP-1 covalently coupled via EDC/NHS (as described by the manufacturer) to a dextran chip. […] The latter implies a half-life for peptide dissociation from IGFBP-1 of approximately 28 sec. The association rate constant is moderately fast, consistent with the notion that the peptide may not undergo significant conformation change upon binding to IGFBP-1.

IGFBP-1 [8] = biological target: T2, IGFBP-1; assay: IGF-blocking phage assay on IGFBP-1 coated plate; format: binding; conditions: FIG. 28
Description: To distinguish among these possibilities, phage clones were tested for the ability to bind to IGFBP-1 or IGFBP-3 in the presence and absence of IGF-I.
IGFBP-1 or IGFBP-3 was coated directly onto MAXISORP™ plates as above. Phage from clonal cultures were mixed with IGF-I (100 nM final concentration), and incubated with the immobilized IGFBP for 1 hour at room temperature. The plates were then washed ten times, as above, and a solution of rabbit anti-phage antibody mixed with a goat-anti-rabbit conjugate of horse radish peroxidase was added. After an incubation of 1 hour at room temperature, the plates were developed with a chromogenic substrate, o-phenylenediamine (Sigma). The reaction was stopped with addition of ½ volume of 2.5 M H2SO4. Optical density at 490 nm was measured on a spectrophotometric plate reader.
These peptides are thus likely to occupy an overlapping site with the IGF-binding epitope on IGFBP-3. […] Additional peptide-phage clones were screened similarly, at a low concentration of phage, with and without IGF-I.

Molecule | effect on IGF-I activity in KIRA with IGF-I plus IGFBP-3 (IGFBP-3 [1]) | IGF-I Inhibition IC50 (mut)/IC50 (wt) (IGFBP-1 [2]) | IGF-II Inhibition IC50 (mut)/IC50 (wt) (IGFBP-1 [3]) | IC50 (IGFBP-1 [4]) [nM] | inhibition of biotinylated IGFBP-3 binding to IGF-I plate (IGFBP-3 [5]) | IC50 (IGFBP-1 [6]; 20 nM biotinylated IGFBP-1, IGF-I coated plate, read-out: ELISA IC50, inhibition of IGF-I binding to IGFBP-1) | IGF-I Inhibition IC50 (mut)/IC50 (wt) (IGFBP-1 [6]; C-terminal bp1-01 variants by ELISA) | IGF-I Inhibition IC50 (mut)/IC50 (wt) (IGFBP-1 [6]; bp1-01 non-natural variants by ELISA, a = D-alanine, aib = alpha-aminoisobutyrate) | IGF-I Inhibition IC50 (mut)/IC50 (wt) (IGFBP-1 [6]; g8 bp1-01 selectants by ELISA plate assay, wt = bp1-01) | dissociation rate constant / dissociation kinetics (IGFBP-1 [7]) | inhibition of phage binding to IGFBP-1 by IGF-I in phage titration (IGFBP-1 [8])
CC(C)C[C@@H]1NC(=O)[C@H](Cc2c[nH]c3ccccc23)NC(=O)[C@H](CCC(N)=O)NC(=O)[C@H](CC(C)C)NC(=O)[C@@H]2CCCN2C(=O)CNC(=O)[C@H](C)NC(=O)[C@H](CCCNC(=N)N)NC(=O)[C@@H](N)CSSC[C@@H](C(=O)N[C@@H](CCC(=O)O)C(=O)N[C@@H](CCCCN)C(=O)N[C@@H](Cc2ccc(O)cc2)C(=O)N[C@@H](Cc2ccccc2)C(=O)NCC(N)=O)NC1=O [bp1-01] (H-CRAGPLQWLCEKYFG-NH2; disulfide 1-10; N-terminus assumed) | Neither of these peptides showed activity | 1 | 1 | 397 | no inhibition | ~180 nM and 180 nM | 1 | 1 | 1 | too rapid to measure | –
SEVGCRAGPLQWLCEKYF [HL-1] | – | – | – | – | – | – | – | – | – | – | inhibited by IGF-I for binding to IGFBP-1 at some phage concentration
